Experimental findings from patent US9981944B2, “GDF-8 inhibitors” (Rigel Pharmaceuticals, Inc., priority 2015, dated 2018) are described below.

For test [1], the system named is GDF8 signaling (p-SMAD-3 Ser423/425). As to the kind of experiment: AlphaScreen SureFire SMAD3 (p-Ser423/425) assay, GDF8 stimulated (GDF pSMAD (MPC11)). To be noted: Mus musculus, MPC-11, inhibition of GDF8 signaling. It is filed as cell-based.
A further test addresses HIS-TGFβR1 T204D (Homo sapiens (Human), UniProt P36897, T204D). As to the kind of experiment: HTRF probe displacement assay, HIS-TGFβR1 T204D. The class given is binding. The settings on record: 1 nM HIS-TGFβR1 T204D, 1 hour at room temperature, read-out: TGFBR1T204D IC50. Here is the method: (§1) Compounds were dissolved at 10 mM in dimethylsulfoxide (DMSO) and evaluated at eleven concentrations. IC50 values were derived by non-linear regression analysis.

For another test, the target named is HIS-TGFβR2 WT (Homo sapiens (Human), UniProt P37173). The experiment in a line: HTRF probe displacement assay, HIS-TGFβR2 WT. The settings on record: 1 nM HIS-TGFβR2 WT, 1 hour at room temperature, read-out: TGFBR2WT IC50. It is filed as binding. Here is the method:
as §1
On the technique in general: Time-resolved FRET reads energy transfer from a long-lived donor to a nearby acceptor.

Some results are limits rather than exact numbers.

Sequence of HIS-TGFβR1 T204D (P36897 34-503 T204D): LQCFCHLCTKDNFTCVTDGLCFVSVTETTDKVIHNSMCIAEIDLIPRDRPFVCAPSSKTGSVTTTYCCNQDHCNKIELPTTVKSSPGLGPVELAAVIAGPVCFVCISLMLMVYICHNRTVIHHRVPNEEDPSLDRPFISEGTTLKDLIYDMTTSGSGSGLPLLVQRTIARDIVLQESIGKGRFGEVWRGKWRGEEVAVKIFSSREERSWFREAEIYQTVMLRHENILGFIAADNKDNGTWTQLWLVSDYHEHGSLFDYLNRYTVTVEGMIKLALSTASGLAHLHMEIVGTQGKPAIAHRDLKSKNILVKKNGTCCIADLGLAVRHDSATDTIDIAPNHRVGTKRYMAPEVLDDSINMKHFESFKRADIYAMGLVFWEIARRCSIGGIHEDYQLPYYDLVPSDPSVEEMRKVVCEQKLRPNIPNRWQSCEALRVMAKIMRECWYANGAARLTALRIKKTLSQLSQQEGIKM
Sequence of HIS-TGFβR2 WT (P37173 23-567): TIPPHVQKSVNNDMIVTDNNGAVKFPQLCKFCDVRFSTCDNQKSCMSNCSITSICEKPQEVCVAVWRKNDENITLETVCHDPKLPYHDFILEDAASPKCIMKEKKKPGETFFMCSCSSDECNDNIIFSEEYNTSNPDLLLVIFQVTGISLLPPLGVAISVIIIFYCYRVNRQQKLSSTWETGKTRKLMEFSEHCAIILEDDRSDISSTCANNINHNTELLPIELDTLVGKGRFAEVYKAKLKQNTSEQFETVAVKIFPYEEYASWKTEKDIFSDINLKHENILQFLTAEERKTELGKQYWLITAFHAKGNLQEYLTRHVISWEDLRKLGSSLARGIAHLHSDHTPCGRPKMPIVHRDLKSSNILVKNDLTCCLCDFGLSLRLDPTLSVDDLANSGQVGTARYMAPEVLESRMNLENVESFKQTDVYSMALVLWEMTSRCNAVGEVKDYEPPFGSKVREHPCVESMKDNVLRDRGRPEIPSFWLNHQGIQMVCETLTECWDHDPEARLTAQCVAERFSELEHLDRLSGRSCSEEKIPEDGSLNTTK

As usually defined, the IC50 is the concentration that gives 50% inhibition. In test [1], `N#Cc1cnc2ccc(-c3cccnc3-c3ccccn3)cn12` [Compound 7, 6-([2,2′-Bipyridin]-3-yl)imidazo[1,2-a]pyridine-3-carbonitrile] returned an IC50 of 8510 nM.
As to `N#Cc1cnc2ccc(-c3cccnc3-c3cccc(C(F)F)n3)nn12` [Compound 49, 6-(6′-(difluoromethyl)-[2,2′-bipyridin]-3-yl)imidazo[1,2-b]pyridazine-3-carbonitrile], the IC50 on HIS-TGFβR1 T204D was 61 nM; at HIS-TGFβR2 WT, greater than 15000 nM.
Taken in the same sequence, the figures for `CCc1cccc(-c2ncccc2-c2ccc3ncnc(N)c3c2)n1` [Compound 107, 6-(6′-ethyl-[2,2′-bipyridin]-3-yl)quinazolin-4-amine] were 9 nM and greater than 15000 nM.
Take `NC(=O)c1cnc2ccc(-c3cc(F)cnc3-c3cccc(C(F)F)n3)cn12` [Compound 84, 6-(6′-(difluoromethyl)-5-fluoro-[2,2′-bipyridin]-3-yl)imidazo[1,2-a]pyridine-3-carboxamide]: the IC50 was 1 nM at HIS-TGFβR1 T204D and greater than 15000 nM on HIS-TGFβR2 WT.
For `FC(F)c1cccc(-c2ncccc2-c2ccc3[nH]nc(C(F)F)c3c2)n1` [Compound 118, 3-(difluoromethyl)-5-(6′-(difluoromethyl)-[2,2′-bipyridin]-3-yl)-1H-indazole] the same measures were 427 nM and greater than 15000 nM.
Taken in the same sequence, the figures for `Cc1cccc(-c2ncccc2-c2ccc3ncc(C(=O)NC4CC4)n3n2)n1` [Compound 75, N-cyclopropyl-6-(6′-methyl-[2,2′-bipyridin]-3-yl)imidazo[1,2-b]pyridazine-3-carboxamide] were 25 nM and greater than 15000 nM.
For `Cc1cccc(-c2ncccc2-c2ccc3ncc(C(N)=O)n3n2)n1` [Compound 58, 6-(6′-methyl-[2,2′-bipyridin]-3-yl)imidazo[1,2-b]pyridazine-3-carboxamide] the same measures were 19 nM and greater than 15000 nM.
In the case of `NC(=O)c1cnc2ccc(-c3cccnc3-c3cccc(C(F)(F)F)n3)cn12` [Compound 18, 6-(6′-(trifluoromethyl)-[2,2′-bipyridin]-3-yl)imidazo[1,2-a]pyridine-3-carboxamide], the results for the IC50 at HIS-TGFβR1 T204D and on HIS-TGFβR2 WT were 1 nM and greater than 15000 nM, respectively.
For `NC(=O)c1cn2cc(-c3cccnc3-c3cccc(C(F)(F)F)n3)ccc2n1` [Compound 79, 6-(6′-(trifluoromethyl)-[2,2′-bipyridin]-3-yl)imidazo[1,2-a]pyridine-2-carboxamide] the same measures were 15000 nM and greater than 15000 nM.
For `CNC(=O)c1cnn2ccc(-c3cccnc3-c3cccc(C)n3)nc12` [Compound 127, N-methyl-5-(6′-methyl-[2,2′-bipyridin]-3-yl)pyrazolo[1,5-a]pyrimidine-3-carboxamide] the same measures were 128 nM and greater than 15000 nM.
Taken in the same sequence, the figures for `Nc1ncnc2ccc(-c3cccnc3-c3cccc(C(F)F)n3)nc12` [Compound 105, 6-(6′-(difluoromethyl)-[2,2′-bipyridin]-3-yl)pyrido[3,2-d]pyrimidin-4-amine] were 3 nM and greater than 15000 nM.
As to `CC(C)c1cccc(-c2ncccc2-c2ccc3ncc(C(N)=O)n3n2)n1` [Compound 64, 6-(6′-isopropyl-[2,2′-bipyridin]-3-yl)imidazo[1,2-b]pyridazine-3-carboxamide], the IC50 at HIS-TGFβR1 T204D is 563 nM; at HIS-TGFβR2 WT it was greater than 15000 nM.
`CC(C)c1cccc(-c2ncccc2-c2ccc3ncnc(N)c3c2)n1` [Compound 108, 6-(6′-isopropyl-[2,2′-bipyridin]-3-yl)quinazolin-4-amine]: the results for the IC50 on HIS-TGFβR1 T204D and on HIS-TGFβR2 WT were 172 nM and greater than 15000 nM, respectively.
For the molecule `NC(=O)c1cnc2ccc(-c3cccnc3-c3cccc(C4CC4)n3)cn12` [Compound 35, 6-(6′-cyclopropyl-[2,2′-bipyridin]-3-yl)imidazo[1,2-a]pyridine-3-carboxamide], the IC50 is 1 nM at HIS-TGFβR1 T204D and greater than 15000 nM at HIS-TGFβR2 WT.
Taken in the same sequence, the figures for `N#Cc1cnc2ccc(-c3cccnc3-c3cc(F)ccn3)nn12` [Compound 59, 6-(4′-fluoro-[2,2′-bipyridin]-3-yl)imidazo[1,2-b]pyridazine-3-carbonitrile] were 918 nM and greater than 15000 nM.
For `CC(=O)Nc1cnc(-c2cccc(C)n2)c(-c2ccc3ncc(C#N)n3c2)c1` [Compound 96, N-(3-(3-cyanoimidazo[1,2-a]pyridin-6-yl)-6′-methyl-[2,2′-bipyridin]-5-yl)acetamide] the same measures were 43 nM and greater than 15000 nM.
For `Cc1cccc(-c2ncccc2-c2ccc3ncc(C(=O)O)n3n2)n1` [Compound 73, 6-(6′-methyl-[2,2′-bipyridin]-3-yl)imidazo[1,2-b]pyridazine-3-carboxylic acid] the same measures were 26 nM and greater than 15000 nM.
For the molecule `N#Cc1cnc2ccc(-c3cccnc3-c3cc(F)ccn3)cn12` [Compound 16, 6-(4′-fluoro-[2,2′-bipyridin]-3-yl)imidazo[1,2-a]pyridine-3-carbonitrile], the IC50 on HIS-TGFβR1 T204D was 207 nM; at HIS-TGFβR2 WT, greater than 15000 nM.
Taken in the same sequence, the figures for `COc1cccc(-c2ncccc2-c2ccc3ncc(C#N)n3n2)n1` [Compound 50, 6-(6′-methoxy-[2,2′-bipyridin]-3-yl)imidazo[1,2-b]pyridazine-3-carbonitrile] were 43 nM and greater than 15000 nM.
For `Cc1nc(-c2ncccc2-c2ccn3ncc(C#N)c3n2)ccc1F` [Compound 122, 5-(5′-fluoro-6′-methyl-[2,2′-bipyridin]-3-yl)pyrazolo[1,5-a]pyrimidine-3-carbonitrile], the values for the IC50 at HIS-TGFβR1 T204D and at HIS-TGFβR2 WT were 242 nM and greater than 15000 nM, respectively.
For `CCOC(=O)c1cnn2ccc(-c3cccnc3-c3cccc(C(F)F)n3)nc12` [Compound 134, ethyl 5-(6′-(difluoromethyl)-[2,2′-bipyridin]-3-yl)pyrazolo[1,5-a]pyrimidine-3-carboxylate] the same measures were 28 nM and greater than 15000 nM.
Take `FC(F)(F)c1cccc(-c2ncccc2-c2ccc3nccnc3c2)n1` [Compound 114, 6-(6′-(trifluoromethyl)-[2,2′-bipyridin]-3-yl)quinoxaline]: the IC50 on HIS-TGFβR1 T204D was 16 nM; on HIS-TGFβR2 WT, greater than 15000 nM.
Taken in the same sequence, the figures for `N#Cc1cnc2ccc(-c3cccnc3-c3cccc(C(F)F)n3)cn12` [Compound 28, 6-(6′-(difluoromethyl)-[2,2′-bipyridin]-3-yl)imidazo[1,2-a]pyridine-3-carbonitrile] were 9 nM and greater than 15000 nM.
Taken in the same sequence, the figures for `O=C(O)c1cnn2ccc(-c3cccnc3-c3cccc(C(F)F)n3)nc12` [Compound 135, 5-(6′-(difluoromethyl)-[2,2′-bipyridin]-3-yl)pyrazolo[1,5-a]pyrimidine-3-carboxylic acid] were 107 nM and greater than 15000 nM.
As for `Cc1nc(-c2ncccc2-c2ccc3ncnc(N)c3c2)ccc1F` [Compound 110], the IC50 at HIS-TGFβR1 T204D is 2 nM; at HIS-TGFβR2 WT, greater than 15000 nM.
Take `Cc1cccc(-c2ncccc2-c2ccn3ncc(C(=O)NC4CC4)c3n2)n1` [Compound 128, N-cyclopropyl-5-(6′-methyl-[2,2′-bipyridin]-3-yl)pyrazolo[1,5-a]pyrimidine-3-carboxamide]: the IC50 on HIS-TGFβR1 T204D is 33 nM; at HIS-TGFβR2 WT, greater than 15000 nM.
In the case of `Cc1cccc(-c2nc(C(F)(F)F)ccc2-c2ccc3ncc(C#N)n3c2)n1` [Compound 89, 6-(6′-methyl-6-(trifluoromethyl)-[2,2′-bipyridin]-3-yl)imidazo[1,2-a]pyridine-3-carbonitrile], the IC50 on HIS-TGFβR1 T204D was 3360 nM; at HIS-TGFβR2 WT, greater than 15000 nM.
For `Cc1nc(-c2ncccc2-c2ccc3[nH]ncc3c2)ccc1F` [Compound 117, 5-(5′-fluoro-6′-methyl-[2,2′-bipyridin]-3-yl)-1H-indazole] the same measures were 2 nM and greater than 15000 nM.
Taken in the same sequence, the figures for `NC(=O)c1cnc2ccc(-c3cccnc3-c3cccc(Cl)n3)cn12` [Compound 46, 6-(6′-chloro-[2,2′-bipyridin]-3-yl)imidazo[1,2-a]pyridine-3-carboxamide] were 0.4 nM and greater than 15000 nM.
For `Cc1cccc(-c2ncccc2-c2ccn3ncc(C(=O)NC4COC4)c3n2)n1` [Compound 129, 5-(6′-methyl-[2,2′-bipyridin]-3-yl)-N-(oxetan-3-yl)pyrazolo[1,5-a]pyrimidine-3-carboxamide] the same measures were 29 nM and greater than 15000 nM.
Turning to `N#Cc1cnc2ccc(-c3cc(F)cnc3-c3cccc(C(F)F)n3)cn12` [Compound 83, 6-(6′-(difluoromethyl)-5-fluoro-[2,2′-bipyridin]-3-yl)imidazo[1,2-a]pyridine-3-carbonitrile], the IC50 is 22 nM on HIS-TGFβR1 T204D and greater than 15000 nM on HIS-TGFβR2 WT.
Taken in the same sequence, the figures for `COC(=O)c1ccnc(-c2cccc(C)n2)c1-c1ccc2ncc(C#N)n2c1` [Compound 91, methyl 3-(3-cyanoimidazo[1,2-a]pyridin-6-yl)-6′-methyl-[2,2′-bipyridine]-4-carboxylate] were 652 nM and greater than 15000 nM.
Take `N#Cc1cnc2ccc(-c3cccnc3-c3cccc(F)n3)nn12` [Compound 65, 6-(6′-fluoro-[2,2′-bipyridin]-3-yl)imidazo[1,2-b]pyridazine-3-carbonitrile]: the figures for the IC50 at HIS-TGFβR1 T204D and on HIS-TGFβR2 WT were 397 nM and greater than 15000 nM, respectively.
Taken in the same sequence, the figures for `Cc1cccc(-c2ncccc2-c2ccc3ncc(NC(=O)C(F)(F)F)n3c2)n1` [Compound 66, 2,2,2-trifluoro-N-(6-(6′-methyl-[2,2′-bipyridin]-3-yl)imidazo[1,2-a]pyridin-3-yl)acetamide] were 37 nM and greater than 15000 nM.
Taken in the same sequence, the figures for `Cc1ccc(-c2ncccc2-c2ccc3ncc(C#N)n3n2)nc1` [Compound 55, 6-(5′-methyl-[2,2′-bipyridin]-3-yl)imidazo[1,2-b]pyridazine-3-carbonitrile] were 5230 nM and greater than 15000 nM.
